Assay results from patent US20200305471A1, “METHODS AND COMPOSITIONS FOR IMPROVING THE TASTE OF DIET COLA SODAS AND OTHER BEVERAGES” (priority 2017, published 2020).

Legend:
[1] = chemicals of externally-applied lavender or tea tree oils; NIH 2018; cited from earlier work
[2] = Taste and/or aroma of Diet Coke after adding the substance (opinions of a few people); conditions: for taste and/or aroma of Diet Coke after adding the substance: substance alone added to about 220 ml (7.5 ounces) Diet Coke, room temperature
Excerpt: For the embodiments disclosed herein, the signifier “aroma” is used in preference to its synonyms: smell and odor (which have negative connotations), and scent (which has perfume connotations). The signifier “taste” is mostly used herein, and to a lesser extent, “flavor”, which often signifies a specific “taste”.
Taste and aroma are not separate sensory experiences. […] This is attributed to the odor sensors in the nose being blocked. […] Thus, in many of the embodiments disclosed herein, the term “taste and/or aroma” is used.
For the exemplary embodiments that follow, the examples are performed with all liquids at room temperature. Sodas typically taste more flavorful at lower temperatures (sodas retain carbonation better at lower temperatures, which creates a better taste for many people). […] Tastes and/or aromas can also vary due to the use of soda container: glass, plastic or metal. There are many who think that cola sodas taste best when consumed from glass bottles. For many of the exemplary embodiments disclosed herein, Bodum Pavina Coffee Mugs, double-wall insulated glass mugs, 8 ounce size, are used.
One embodiment of an improved diet cola beverage product is understood with the following exemplary method and resulting exemplary article of manufacture. […] Any coca leaf extract with similar chemical components to ERC-A20 can be used—coca leaf extracts discussed below.

[3] = cited from earlier work
[4] = as sweet as sucrose; cited from earlier work

Compound | contribution to abnormal breast growth (potential hormone disruptor) [1] | taste and/or aroma of Diet Coke after adding the substance [2] | also measured
CC1=CCC(O)(C(C)C)CC1 (centres unmarked) [4-terpineol] | probably contributed to the abnormal breast growth | – | –
CC1=CC=C(C(C)C)CC1 [alpha-terpinene] | probably contributed to the abnormal breast growth | – | –
CC1=CCC(C(C)(C)O)CC1 (stereo not drawn) [alpha-terpineol] | probably contributed to the abnormal breast growth | more pleasant | –
CCOC(=O)c1ccccc1 [ethyl benzoate] | – | more pleasant than that of untreated Diet Coke | solubility in water [3]: 500 micrograms/milliliter
CC12CCC(CC1)C(C)(C)O2 [eucalyptol] | probably contributed to the abnormal breast growth | – | –
CC1=CCC(C(C)C)=CC1 [gamma-terpinene] | – | while more pleasant as seen with adding alpha-terpineol, also has less of a “coca cola” taste | –
C=C(C)[C@H]1CC=C(C)CC1 [limonene] | probably contributed to the abnormal breast growth | – | –
C=CC(C)(O)CCC=C(C)C (centres unmarked) [linalool] | probably contributed to the abnormal breast growth | little-to-no change in the unpleasant | –
C=CC(C)(CCC=C(C)C)OC(C)=O (centres unmarked) [linalyl acetate] | probably contributed to the abnormal breast growth | – | –
COC(=O)c1ccccc1 [methyl benzoate] | – | improvement in Diet Coke taste similar to that of ethyl benzoate | –
O=C([O-])c1ccccc1.[Na+] [sodium benzoate, reference compound] | – | No improvement | –
O=S(=O)([O-])NC1CCCCC1.[Na+] [sodium cyclamate] | – | – | taste test preference, added to Diet Coke versus added to Coca-Cola Zero ([2]; some taste tests, Diet Coke (total 2 artificial sweeteners) vs Coca-Cola Zero (3 artificial sweeteners)): more preferred
OC[C@@H](O)[C@@H](O)[C@H](O)[C@@H](O)CO [sorbitol] | – | – | sweetness relative to sucrose [4]: about 60%
OC[C@H]1O[C@@](CO)(O[C@H]2O[C@H](CO)[C@@H](O)[C@H](O)[C@H]2O)[C@@H](O)[C@@H]1O [sugar] | – | – | taste of resulting beverage, sweetener added together with coca leaf extract ([2]; 220 ml Diet Coke + one teaspoon coca leaf extract + sweetener (about one bag Sugar Twin; one to two bags sugar)): more pleasant tasting Diet Coke soda
